This assay has as its system Acinetobacter baumannii ATCC17961. The assay can be described thus: Antimicrobial susceptibility testing: 90% growth inhibitory concentration (IC90) determination in Iso-Sensitest broth, OD600 growth. The class given is cell-based. The method, then: Antimicrobial Susceptibility Testing:
90% Growth Inhibitory Concentration (IC90) Determination
The in vitro antimicrobial activity of the compounds was determined according to the following procedure:
The assay used a 10-points Iso-Sensitest broth medium to measure quantitatively the in vitro activity of the compounds against Acinetobacter baumannii ATCC17961 or ATCC17968.
Stock compounds in DMSO were serially twofold diluted (e.g. range from 50 to 0.097 μM final concentration) in 384 wells microtiter plates and inoculated with 49 μl the bacterial suspension in Iso-Sensitest medium to have a final cell concentration of ˜5×10^(5) CFU/ml in a final volume/well of 50 ul/well. Microtiter plates were incubated at 35±2° C.
Bacterial cell growth was determined with the measurement of optical density at λ=600 nm each 20 minutes over a time course of 16 h. Growth inhibition was calculated during the logarithmic growth of the bacterial cells with determination of the concentration inhibiting 50% (IC50) and 90% (IC90) of the growth.
Table 7 provides the 90% growth inhibitory concentrations (IC90) in micromoles per liter of the compounds of present invention obtained against the strain Acinetobacter baumannii ATCC17961 and/or ATCC17968.

[1] abbreviates: Acinetobacter baumannii, ATCC17961, 16 h, strain ATCC 17961, OD600 growth over 16 h, read-out: A. baumannii ATCC 17961 IC90.
[2] abbreviates: strain ATCC 17961, OD600 growth over 16 h, read-out: A. baumannii ATCC 17961 IC90.
[3] abbreviates: Acinetobacter baumannii, ATCC17961, 16 h, read-out: A. baumannii ATCC 17961 IC90 (uM), strain ATCC 17961, OD600 growth over 16 h.

Structures can show the parent of a compound that is named as a salt. Where two headings read alike, the source gives them in different places.

Take `CCc1cc(Nc2nccn3c(-c4cn(CC#N)nc4C(F)(F)F)cnc23)ccc1C(=O)NCCOC[C@H](C)N` [Example 152, N-[2-[(2S)-2-aminopropoxy]ethyl]-4-[[3-[1-(cyanomethyl)-3-(trifluoromethyl)pyrazol-4-yl]imidazo[1,2-a]pyrazin-8-yl]amino]-2-ethylbenzamide]: the IC90 under setting [1] is 0.241 µM.

As for `CCc1cc(Nc2nccn3c(-c4cn(CCN5CCCC5)nc4C(F)(F)F)cnc23)ccc1C(=O)NCCOCCN` [Example 269, N-[2-(2-aminoethoxy)ethyl]-2-ethyl-4-[[3-[1-(2-pyrrolidin-1-ylethyl)-3-(trifluoromethyl)pyrazol-4-yl]imidazo[1,2-a]pyrazin-8-yl]amino]benzamide], the concentration for an effect of 90% (IC90) under setting [1] amounted to 1.39 µM.

On to `N#CCn1cc(-c2cnc3c(Nc4ccc(C(=O)N5CCN(C(=O)NCCN)CC5)c(Cl)c4)nccn23)c(C(F)(F)F)n1` [Example 264, N-(2-aminoethyl)-4-[2-chloro-4-[[3-[1-(cyanomethyl)-3-(trifluoromethyl)pyrazol-4-yl]imidazo[1,2-a]pyrazin-8-yl]amino]benzoyl] piperazine-1-carboxamide formate], for which the 90% effect concentration (IC90) under setting [2] stood at 0.451 µM.

As for `C#CCn1cc(-c2cnc3c(Nc4ccc(C(=O)N5CCN(C(=O)C6(O)CCNCC6)CC5)c(CC)c4)nccn23)c(C(F)F)n1` [Example 755, (4-(4-((3-(3-(difluoromethyl)-1-(prop-2-yn-1-yl)-1H-pyrazol-4-yl)imidazo[1,2-a]pyrazin-8-yl)amino)-2-ethylbenzoyl)piperazin-1-yl)(4-hydroxypiperidin-4-yl) methanone], the IC90 under setting [1] came out at 0.678 µM.

On to `CCc1cc(Nc2nccn3c(-c4c[nH]nc4C(F)(F)F)cnc23)ccc1C(=O)NCCCNC(=O)NCCN` [Example 193, N-[3-(2-aminoethylcarbamoylamino)propyl]-2-ethyl-4-[[3-[3-(trifluoromethyl)-1H-pyrazol-4-yl]imidazo[1,2-a]pyrazin-8-yl]amino]benzamide formate], for which the IC90 under setting [3] came to 0.244 µM.

As to `CCc1cc(Nc2nccn3c(-c4cn(CC#N)nc4C(F)(F)F)cnc23)ccc1C(=O)N[C@H](C)CNC(=O)[C@@H]1CCCN1` [Example 654, (S)-N-((R)-2-(4-((3-(1-(cyanomethyl)-3-(trifluoromethyl)-1H-pyrazol-4-yl)imidazo[1,2-a]pyrazin-8-yl)amino)-2-ethylbenzamido)propyl) pyrrolidine-2-carboxamide], the IC90 under setting [1] worked out at 0.263 µM.

Regarding `O=C(CNC(=O)c1ccc(Nc2nccn3c(-c4c[nH]nc4C(F)(F)F)cnc23)cc1Cl)N[C@@H]1CCNC1` [Example 139, 2-chloro-N-[2-oxo-2-[[(3R)-pyrrolidin-3-yl]amino]ethyl]-4-[[3-[3-(trifluoromethyl)-1H-pyrazol-4-yl]imidazo[1,2-a]pyrazin-8-yl]amino]benzamide], under setting [1], the IC90 is 2.8 µM.

As for `CCc1cc(Nc2nccn3c(-c4cn(CC#N)nc4C(F)(F)F)cnc23)ccc1C(=O)NCC(=O)N1CC2(CC(N)C2)C1` [Example 508, N-[2-(6-amino-2-azaspiro[3.3]heptan-2-yl)-2-oxo-ethyl]-4-[[3-[1-(cyanomethyl)-3-(trifluoromethyl)pyrazol-4-yl]imidazo[1,2-a]pyrazin-8-yl]amino]-2-ethyl-benzamide formate], the IC90 under setting [3] amounted to 0.198 µM.

In the case of `CCc1cc(Nc2nccn3c(-c4cn(CC5CCOC5)nc4C(F)(F)F)cnc23)ccc1C(=O)NCCOCCN` (centres unmarked) [Example 307, N-[2-(2-aminoethoxy)ethyl]-2-ethyl-4-[[3-[1-(oxolan-3-ylmethyl)-3-(trifluoromethyl)pyrazol-4-yl]imidazo[1,2-a]pyrazin-8-yl]amino]benzamide formate], the IC90 under setting [3] amounted to 0.514 µM.

With `CCc1cc(Nc2nccn3c(-c4cn(CC(F)F)nc4C(F)(F)F)cnc23)ccc1C(=O)NCC(=O)NCC1CNC1` [Example 547, N-[2-(azetidin-3-ylmethylamino)-2-oxo-ethyl]-4-[[3-[1-(2,2-difluoroethyl)-3-(trifluoromethyl)pyrazol-4-yl]imidazo[1,2-a]pyrazin-8-yl]amino]-2-ethyl-benzamide formate], under setting [3], the concentration for an effect of 90% (IC90) was 0.298 µM.

`C=CCn1cc(-c2cnc3c(Nc4ccc(C(=O)NCCOCC(C)(C)N)c(CC)c4)nccn23)c(C(F)(F)F)n1` [Example 45, N-[2-(2-amino-2-methylpropoxy)ethyl]-2-ethyl-4-[[3-[1-prop-2-enyl-3-(trifluoromethyl)pyrazol-4-yl]imidazo[1,2-a]pyrazin-8-yl]amino] benzamide]: the IC90 under setting [2] turned out to be 0.074 µM.

Take `C#CCNCCCNC(=O)c1c(C)cc(Nc2nccn3c(-c4cn(CC=C)nc4C(F)(F)F)cnc23)cc1F` [Example 66, 2-fluoro-6-methyl-4-[[3-[1-prop-2-enyl-3-(trifluoromethyl)pyrazol-4-yl]imidazo[1,2-a]pyrazin-8-yl]amino]-N-[3-(prop-2-ynylamino)propyl] benzamide]: the 90% effect concentration (IC90) under setting [2] was 0.379 µM.

`Cc1cc(Nc2nccn3c(-c4cn(CC#N)nc4C(F)(F)F)cnc23)cc(F)c1C(=O)N[C@H](C)CNC(=O)C1CCNCC1` [Example 741, (R)-N-(2-(4-((3-(1-(cyanomethyl)-3-(trifluoromethyl)-1H-pyrazol-4-yl)imidazo[1,2-a]pyrazin-8-yl)amino)-2-fluoro-6-methylbenzamido)propyl)piperidine-4-carboxamide formate]: the IC90 under setting [3] came out at 0.53 µM.

For the molecule `C=C(Cl)C(C)n1cc(-c2cnc3c(Nc4ccc(C(=O)NCCOCCN)c(CC)c4)nccn23)c(C(F)(F)F)n1` (centres unmarked) [Example 275, N-[2-(2-aminoethoxy)ethyl]-4-[[3-[1-(3-chlorobut-3-en-2-yl)-3-(trifluoromethyl)pyrazol-4-yl]imidazo[1,2-a]pyrazin-8-yl]amino]-2-ethylbenzamide formate], the IC90 under setting [3] came to 0.169 µM.

Turning to `NCCNC(=O)CNC(=O)c1ccc(Nc2nccn3c(-c4cn(CC(F)F)nc4C(F)(F)F)cnc23)cc1Cl` [Example 117, N-[2-(2-aminoethylamino)-2-oxoethyl]-2-chloro-4-[[3-[1-(2,2-difluoroethyl)-3-(trifluoromethyl)pyrazol-4-yl]imidazo[1,2-a]pyrazin-8-yl]amino]benzamide formate], the IC90 under setting [3] came to 0.338 µM.

On to `N#CCn1cc(-c2cnc3c(Nc4ccc(C(=O)NCC(=O)N5CC[C@H](N)C5)c(Cl)c4)nccn23)c(C(F)(F)F)n1` [Example 656, N-[2-[(3S)-3-aminopyrrolidin-1-yl]-2-oxo-ethyl]-2-chloro-4-[[3-[1-(cyanomethyl)-3-(trifluoromethyl)pyrazol-4-yl]imidazo[1,2-a]pyrazin-8-yl]amino] benzamide formate], for which the IC90 under setting [1] worked out at 0.266 µM.

With `CCc1cc(Nc2nccn3c(-c4c[nH]nc4C(F)(F)F)cnc23)ccc1C(=O)NCCNC(=O)[C@@H](N)CNC(=N)N` [Example 213, N-[2-[[(2S)-2-amino-3-carbamimidamidopropanoyl]amino]ethyl]-2-ethyl-4-[[3-[3-(trifluoromethyl)-1H-pyrazol-4-yl]imidazo[1,2-a]pyrazin-8-yl]amino]benzamide formate], the IC90 under setting [3] came to 0.378 µM.

For the molecule `CCc1cc(Nc2nccn3c(-c4cn(CC)nc4C(F)(F)F)cnc23)ccc1C(=O)NCCOCCN` [Example 31, N-[2-(2-aminoethoxy)ethyl]-2-ethyl-4-[[3-[1-ethyl-3-(trifluoromethyl)pyrazol-4-yl]imidazo[1,2-a]pyrazin-8-yl]amino]benzamide formate], the IC90 under setting [3] amounted to 0.175 µM.

On to `NC1CCN(C(=O)c2ccc(Nc3nccn4c(-c5cn(CC(F)F)nc5C(F)(F)F)cnc34)cc2Cl)CC1` [Example 103, (4-aminopiperidin-1-yl)-[2-chloro-4-[[3-[1-(2,2-difluoroethyl)-3-(trifluoromethyl)pyrazol-4-yl]imidazo[1,2-a]pyrazin-8-yl]amino]phenyl] methanone], for which, under setting [1], the IC90 turned out to be 0.195 µM.

`CCc1cc(Nc2nccn3c(-c4cn(CC#N)nc4C(F)(F)F)cnc23)ccc1C(=O)NCCOCCN` [Example 29, N-[2-(2-aminoethoxy)ethyl]-4-[[3-[1-(cyanomethyl)-3-(trifluoromethyl)pyrazol-4-yl]imidazo[1,2-a]pyrazin-8-yl]amino]-2-ethylbenzamide formate]: the IC90 under setting [3] came to 0.107 µM.

In the case of `CCc1cc(Nc2nccn3c(-c4cn(CC(F)F)nc4C(F)(F)F)cnc23)ccc1C(=O)NCCCNC(=O)[C@@H](C)N` [Example 633, (R)-N-(3-(2-aminopropanamido)propyl)-4-((3-(1-(2,2-difluoroethyl)-3-(trifluoromethyl)-1H-pyrazol-4-yl)imidazo[1,2-a]pyrazin-8-yl)amino)-2-ethylbenzamide formate], under setting [3], the IC90 amounted to 0.214 µM.

With `CCc1cc(Nc2nccn3c(-c4c[nH]nc4C(F)(F)F)cnc23)ccc1C(=O)N[C@H](C)CNC(=O)[C@@H]1C[C@@H](O)CN1` [Example 782, (2S,4R)-N-((R)-2-(2-ethyl-4-((3-(3-(trifluoromethyl)-1H-pyrazol-4-yl)imidazo[1,2-a]pyrazin-8-yl)amino)benzamido)propyl)-4-hydroxypyrrolidine-2-carboxamide], under setting [1], the IC90 stood at 1.15 µM.

With `CCc1cc(Nc2nccn3c(-c4cn(CC(F)F)nc4C(F)(F)F)cnc23)ccc1C(=O)N1CC2CC1CN2` (centres unmarked) [Example 561, (2,5-diazabicyclo [2.2.1]heptan-2-yl)(4-((3-(1(2,2-difluoroethyl)-3-(trifluoromethyl)-1H-pyrazol-4-yl)imidazo[1,2-a]pyrazin-8-yl)amino)-2-ethylphenyl) methanone formate], the IC90 under setting [3] was determined as 0.909 µM.

What is called IC90 is the concentration needed for an effect of 90%.

For the origin of these results see patent US20230203043A1, “NOVEL IMIDAZOPYRAZINE DERIVATIVES” (Hoffmann-La Roche Inc., priority 2020, published 2023).
